Laboratory results from DBAASP.

Key:
Assay in all cases: ≥ marks a high value that may be exact or a test limit, other limits are often not marked, values filed in µg/mL are converted to µM
[1] = tested on: Proteus vulgaris IAM 12542
[2] = tested on: Micrococcus luteus IAM 1056
[3] = tested on: Escherichia coli K-12 W3110
Bacillus cereus IAM 1110 = tested on: Bacillus cereus IAM 1110
[4] = tested on: Aeromonas hydrophila IAM 12460
[5] = tested on: Bacillus subtilis IAM 1071
[6] = tested on: Streptococcus sanguinis ATCC 49295
[7] = tested on: Streptococcus sanguinis NY101
[8] = tested on: Streptococcus mutans comD
Streptococcus mutans T8 = tested on: Streptococcus mutans T8
[9] = tested on: Streptococcus gordonii ATCC 10558
[10] = tested on: Streptococcus mutans UA159
[11] = tested on: Streptococcus mutans ATCC 25175
[12] = tested on: Streptococcus gordonii DL1
[13] = tested on: Streptococcus mutans GS-5

Compound | MIC [1] | MIC [2] | MIC [3] | MIC (Bacillus cereus IAM 1110) | MIC [4] | MIC [5] | MIC [6] | MIC [7] | MIC [8] | MIC (Streptococcus mutans T8) | MIC [9] | MIC [10] | MIC [11] | MIC [12] | MIC [13]
CC[C@H](C)[C@@H]1NC(=O)CNC(=O)[C@@H]2CSSC[C@@H]3NC(=O)[C@H](C(C)C)NC(=O)[C@H](CCCN=C(N)N)NC(=O)[C@H](CCCCN)NC(=O)[C@H](CCCCN)NC(=O)[C@H](CC(N)=O)NC(=O)[C@H](CSSC[C@H](NC(=O)[C@@H](NC(=O)[C@@H](N)Cc4ccccc4)[C@@H](C)O)C(=O)N[C@@H](CC(=O)O)C(=O)N[C@@H](C(C)C)C(=O)N[C@@H](CC(C)C)C(=O)N[C@@H](CO)C(=O)N[C@@H](C(C)C)C(=O)N[C@@H](CCC(=O)O)C(=O)N[C@@H](C)C(=O)N[C@@H](CCCCN)C(=O)NCC(=O)N[C@@H](C(C)C)C(=O)N[C@@H](CCCCN)C(=O)N[C@@H](CC(C)C)C(=O)N[C@@H](CC(N)=O)C(=O)N[C@@H](Cc4cnc[nH]4)C(=O)N[C@@H](C)C(=O)N[C@@H](C)C(=O)N2)NC(=O)[C@H](Cc2ccc(O)cc2)NC(=O)CNC(=O)CNC(=O)[C@H]([C@@H](C)O)NC(=O)[C@H](CCCN=C(N)N)NC(=O)[C@H](CCCN=C(N)N)NC(=O)[C@H](CCCN=C(N)N)NC(=O)[C@H](Cc2ccccc2)NC(=O)[C@H](CC(C)C)NC(=O)[C@H](CSSC[C@@H](C(=O)N[C@@H](CCCN=C(N)N)C(=O)O)NC(=O)[C@H]([C@@H](C)CC)NC3=O)NC(=O)[C@H](Cc2cnc[nH]2)NC1=O [FTCDVLSVEAKGVKLNHAACGIHCLFRRRTGGYCNKKRVCICR] | 2.12 µM | 0.0665 µM | 4.24 µM | 4.24 µM | 2.12 µM | 2.12 µM |  |  |  |  |  |  |  |  | 
CC(C)C[C@H](NC(=O)[C@H](CCCN=C(N)N)NC(=O)[C@H](Cc1ccccc1)NC(=O)[C@H](Cc1ccccc1)NC(=O)[C@@H](N)[C@@H](C)O)C(=O)N[C@@H](Cc1ccccc1)C(=O)N[C@@H](CC(N)=O)C(=O)N[C@@H](CCCN=C(N)N)C(=O)O [TFFRLFNR] |  |  |  |  |  |  | ≥ 233 µM | ≥ 60 µM | ≥ 60 µM | ≥ 60 µM | ≥ 233 µM | ≥ 233 µM | ≥ 60 µM | ≥ 60 µM | ≥ 233 µM
